Laboratory results reported in patent US20240279205A1, “NOVEL BENZIMIDAZOLE DERIVATIVE” (Carna Biosciences, Inc., priority 2020, published 2024).
Counter-ions that a name gives are not always drawn.

What follows are molecules tested against T1, human STING (hSTING) (Homo sapiens, UniProt Q86WV6) (assay: Inhibition test of intracellular human STING (hSTING) pathway using SEAP reporter cells (HEK-Blue ISG), stimulation with Compound 3). Conditions: Compound 3 10 nM stimulation, 21 hours.
T1 construct: host or cells: HEK-Blue ISG cells (HEK293-derived SEAP reporter line)
Type: cell-based
Set-up: hSTING inhibitory activity: scale not given here
Method in brief: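 IC50 derived by regressing inhibition rate against log compound concentration (0.1 to 10 μM final, added 1 h before agonist), with 0% and 100% set by wells without and with 10 nM Compound 3. SEAP colour reaction read after 21 h stimulation of HEK-Blue ISG reporter cells.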

T1 sequence (Q86WV6 whole entry H232R): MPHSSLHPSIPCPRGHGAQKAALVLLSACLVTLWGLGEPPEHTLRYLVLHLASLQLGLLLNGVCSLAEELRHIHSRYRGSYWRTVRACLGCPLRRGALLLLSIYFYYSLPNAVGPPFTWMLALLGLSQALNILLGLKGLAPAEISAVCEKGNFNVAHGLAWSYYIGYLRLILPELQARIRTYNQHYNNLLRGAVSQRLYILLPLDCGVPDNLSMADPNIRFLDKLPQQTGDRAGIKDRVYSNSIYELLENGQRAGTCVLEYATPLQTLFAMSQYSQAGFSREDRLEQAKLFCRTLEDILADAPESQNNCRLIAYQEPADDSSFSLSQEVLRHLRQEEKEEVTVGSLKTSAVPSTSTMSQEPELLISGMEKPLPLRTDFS

| hSTING inhibitory activity | Compound |
| --- | --- |
| * * | Clc1ccc2[nH]cc(Nc3nc4cc(C5=CCOCC5)ccc4[nH]3)c2n1 [Embodiment 105, N-(5-chloro-1H-pyrrolo[3,2-b]pyridin-3-yl)-5-(3,6-dihydro-2H-pyran-4-yl)-1H-benzo[d] imidazol-2-amine] |
| * * * | CNn1c(Nc2c[nH]c3ccc(Cl)cc23)nc2cc(C(F)(F)F)cc(F)c21 [Embodiment 271, N2-(5-Chloro-1H-indol-3-yl)-7-fluoro-N1-methyl-5-(trifluoromethyl)-1H-benzo[d]imidazole-1,2-diamine] |
| * * | Cc1cccc2[nH]c(Nc3c[nH]c4ccc(Br)cc34)nc12 [Example 5, N-(5-bromo-1H-indol-3-yl)-4-methyl-1H-benzo[d]imidazol-2-amine] |
| * * | Brc1ccc2[nH]cc(Nc3nc4ccccc4[nH]3)c2c1 [Example 1, N-(5-bromo-1H-indol-3-yl)-1H-benzo[d]imidazol-2-amine] |
| * * | c1ccc(Oc2ccc3[nH]c(Nc4c[nH]c5cc(-c6ccccc6)cnc45)nc3c2)cc1 [Embodiment 51, 5-phenoxy-N-(6-phenyl-1H-pyrrolo[3,2-b]pyridin-3-yl)-1H-benzo[d]imidazol-2-amine] |
| * * | C[C@@H](O)Cn1c(Nc2c[nH]c3ccc(Cl)cc23)nc2cc(C(F)(F)F)ccc21 [Embodiment 239, (R)-1-{2-[(5-chloro-1H-indol-3-yl)amino]-5-(trifluoromethyl)-1H-benzo[d]imidazol-1-yl}propan-2-oar] |
| * * | CN(c1ccccc1)S(=O)(=O)c1ccc2[nH]c(Nc3c[nH]c4ccc(Cl)nc34)nc2c1 [Embodiment 75, 2-[(5-Chloro-1H-pyrrolo[3,2-b]pyridin-3-yl)amino]-N-methyl-N-phenyl-1H-benzo[d]imidazole-5-sulfonamide] |
| * * | O=C(Nc1ccccc1)c1ccc2[nH]cc(Nc3nc4cc(Oc5ccccc5)ccc4[nH]3)c2c1 [Example 30, 3-[(5-phenoxy-1H-benzo[d]imidazol-2-yl)amino]-N-phenyl-1H-indole-5-carboxamide] |
| * * * | CNn1c(Nc2c[nH]c3ccc(C)cc23)nc2cc(C(F)(F)F)cc(F)c21 [Embodiment 277, 7-fluoro-N1-methyl-N2-(5-methyl-1H-indol-3-yl)-5-(trifluoromethyl)-1H-benzo[d]imidazole-1,2-diamine] |
| * * | Clc1ccc2[nH]cc(Nc3nc4cc(-c5ccncc5)ccc4[nH]3)c2n1 [Embodiment 96, N-(5-Chloro-1H-pyrrolo[3,2-b]pyridin-3-yl)-5-(pyridin-4-yl)-1H-benzo[d]imidazol-2-amine] |
| * * | ClC(=CC1CC1)c1ccc2[nH]c(Nc3c[nH]c4ccc(Cl)nc34)nc2c1 [Embodiment 126, N-(5-chloro-1H-pyrrolo[3,2-b]pyridin-3-yl)-5-(1-chloro-2-cyclopropylvinyl)-1H-benzo[d] imidazole-2-amine] |

Same assay, conditions: Compound 3 10 nM stimulation, 21 hours, read-out: hSTING inhibitory activity

| Compound | IC50 |
| --- | --- |
| CC(C)(O)Cn1c(Nc2c[nH]c3ccc(Cl)cc23)nc2cc(C(F)(F)F)ccc21 [Embodiment 234, 1-{2-[(5-chloro-1H-indol-3-yl)amino]-5-(trifluoromethyl)-1H-benzo [d]imidazol-1-yl}-2-methylpropane-2-oar] | 1 to 10 µM |
| Brc1cnc2[nH]cc(Nc3nc4cc(Oc5ccccc5)ccc4[nH]3)c2n1 [Example 21, 2-bromo-N-(5-phenoxy-1H-benzo[d]imidazol-2-yl)-5H-pyrrolo[2,3-b]pyrazin-7-amine] | ≥ 10 µM |
| Clc1ccc2[nH]cc(Nc3nc4cc5c(cc4[nH]3)OCCO5)c2n1 [Embodiment 141, N-(5-chloro-1H-pyrrolo[3,2-b]pyridin-3-yl)-6,7-dihydro-1H-[1,4] dioxino[2′,3′:4, 5]benzo[1,2-d]imidazol-2-amine] | 1 to 10 µM |
| Cn1ccc(-c2ccnc3c(Nc4nc5cc(Oc6ccccc6)ccc5[nH]4)c[nH]c23)n1 [Embodiment 165, N-[7-(1-methyl-1H-pyrazol-3-yl)-1H-pyrrolo[3,2-b]pyridin-3-yl]-5-phenoxy-1H-benzo[d]imidazole-2-amine] | 1 to 10 µM |
| Oc1ccnc2c(Nc3nc4cc(Oc5ccccc5)ccc4[nH]3)c[nH]c12 [Embodiment 76, 3-[(5-phenoxy-1H-benzo[d]imidazol-2-yl)amino]-1H-pyrrolo [3,2-b]pyridin-7-ol formate] | ≥ 10 µM |
| O=C(c1ccc2[nH]cc(Nc3nc4cc(Oc5ccccc5)ccc4[nH]3)c2c1)N1CCOCC1 [Example 28, morpholino {3-[(5-phenoxy-1H-benzo[d]imidazol-2-yl)amino]-1H-indol-5-yl} methanone] | ≥ 10 µM |

Second part, the molecule after the results:

| IC50 | Compound |
| --- | --- |
| ≥ 10 µM | COCCn1c(Nc2c[nH]c3ccc(Cl)nc23)nc2cc(Oc3cccnc3)ccc21 [Embodiment 206, N-(5-chloro-1H-pyrrolo[3,2-b]pyridin-3-yl)-1-(2-methylxhetyl)-5-(pyridin-3-yloxy)-1H-benzo[d] imidazol-2-amine] |
| ≥ 10 µM | CCc1ccc2[nH]cc(Nc3nc4cc(C(F)(F)F)ccc4n3C)c2n1 [Embodiment 173, N-(5-ethyl-1H-pyrrolo[3,2-b]pyridin-3-yl)-1-methyl-5-(trifluoromethyl)-1H-benzo[d]imidazol-2-amine] |
| ≥ 10 µM | Clc1ccc2[nH]cc(Nc3nc4c(-c5ccncc5)cccc4[nH]3)c2n1 [Embodiment 148, N-(5-Chloro-1H-pyrrolo[3,2-b]pyridin-3-yl)-4-(pyridin-4-yl)-1H-benzo[d]imidazol-2-amine] |
| ≥ 10 µM | Cn1c(Nc2c[nH]c3ccc(Cl)nc23)nc2cc(F)cc(F)c21 [Embodiment 204, N-(5-Chloro-1H-pyrrolo[3,2-b]pyridin-3-yl)-5,7-difluoro-1-methyl-1H-benzo[d]imidazol-2-amine] |
| ≥ 10 µM | COCCn1c(Nc2c[nH]c3ccc(Cl)nc23)nc2c(F)cc(F)cc21 [Embodiment 202, N-(5-chloro-1H-pyrrolo[3,2-b]pyridin-3-yl)-4,6-difluoro-1-(2-methoxyethyl)-1H-benzo[d]imidazole-2-amine] |
| ≥ 10 µM | Cn1c(Nc2c[nH]c3ccc(Cl)nc23)nc2c(F)cccc21 [Embodiment 155, N-(5-Chloro-1H-pyrrolo[3,2-b]pyridin-3-yl)-4-fluoro-1-methyl-1H-benzo[d]imidazol-2-amine] |
| ≥ 10 µM | COCCn1c(Nc2c[nH]c3ccc(Cl)nc23)nc2ccc(F)c(F)c21 [Embodiment 201, N-(5-chloro-1H-pyrrolo[3,2-b]pyridin-3-yl)-6,7-difluoro-1-(2-methoxyethyl)-1H-benzo[d]imidazole-2-amine] |
| ≥ 10 µM | COc1ccc2nc(Nc3c[nH]c4ccc(Cl)nc34)n(C)c2c1 [Embodiment 161, N-(5-Chloro-1H-pyrrolo[3,2-b]pyridin-3-yl)-6-methoxy-1-methyl-1H-benzo[d]imidazol-2-amine] |
| ≥ 10 µM | Cn1c(Nc2c[nH]c3ccc(Cl)nc23)nc2ccc(C(F)(F)F)cc21 [Embodiment 46, N-(5-Chloro-1H-pyrrolo[3,2-b]pyridin-3-yl)-1-methyl-6-(trifluoromethyl)-1H-benzo[d] imidazol-2-amine] |
| 1 to 10 µM | CN1CCC(Oc2ccc3[nH]c(Nc4c[nH]c5ccc(Cl)nc45)nc3c2)CC1 [Embodiment 121, N-(5-Chloro-1H-pyrrolo[3,2-b]pyridin-3-yl)-5-[(1-methylpiveridin-4-yl)oxy]-1H-benzo[d]imidazole-2-amine] |
